Test results as given in publication PMC10360169 (Frontiers in Immunology, 2023).

Tests used:
Acar3 = assay type: binding, great reed warbler Acrocephalus arundinaceus; conditions: for Stability T½ of Acar3 in complex with the peptide: Table S1, top 94 PSCPL-scoring peptides, SPA, 10µM peptide, 125I β2m, folding over night at 18°C, dissociation measured up to 24 hours at 37°C; for Stability T½ (h), peptide - Acar3: Table S5, half-life estimated from dissociation in scintillation proximity assay
HLA-B*15:01 = HLA-B*15:01 (Homo sapiens, UniProt P01889, A329T/A93T/A95T/C349S/D201E/D98Y/E187L/E204Q/E69M/E70A/K202T/N87E/Q94N/R155S/R180W/S121R/S35A/S48A/V306I/V36M/Y140S/Y91S); set-up: method as in ref [40]-[42] = [40]; 40 Rasmussen M Harndahl M Kristensen A Nielsen I Jorgensen K Stryhn A . Large Scale analysis of peptide - HLA-I stability . ( 2014 ). || [41]; 41 Harndahl M Lamberth K Justesen S Røder G Madsen M Nielsen M . Large Scale analysis of peptide-HLA class I interactions . ( 2007 ). || [42]; 42 Harndahl M Lamberth K Justesen S Røder G Madsen M Sylvester-Hvid C . Large Scale analysis of peptide-HLA class I interactions . ( 2006 ).; conditions: IEDB; threshold minimum affinity of 500 nM or minimum half-life of 1 h; ref [40]-[42]; cited from earlier work
Acar19 = assay type: binding, great reed warbler Acrocephalus arundinaceus; conditions: Table S5, half-life estimated from dissociation in scintillation proximity assay
HLA-B*35:01 = HLA-B*35:01 (Homo sapiens, UniProt P01889, A329T/A93T/A95T/C349S/D201E/D98Y/E176V/E187L/E204Q/E69T/I218V/K202T/L119I/Q94N/R155S/R180L/S121R/S35A/S48A/T118I/V127L/V306I/V36M/Y140S/Y91F); set-up: method as in ref [40]-[43] = [40]; 40 Rasmussen M Harndahl M Kristensen A Nielsen I Jorgensen K Stryhn A . Large Scale analysis of peptide - HLA-I stability . ( 2014 ). || [41]; 41 Harndahl M Lamberth K Justesen S Røder G Madsen M Nielsen M . Large Scale analysis of peptide-HLA class I interactions . ( 2007 ). || [42]; 42 Harndahl M Lamberth K Justesen S Røder G Madsen M Sylvester-Hvid C . Large Scale analysis of peptide-HLA class I interactions . ( 2006 ). || [43]; 43 Harndahl M Lamberth K Røder G Justesen S Madsen M Nielsen M . Large Scale analysis of peptide-HLA class I interactions . ( 2010 ).; conditions: IEDB; threshold minimum affinity of 500 nM or minimum half-life of 1 h; ref [40]-[43]; cited from earlier work
HLA-A*32:07 = HLA-A*32:07 (Homo sapiens, UniProt P04439, A270S/D101S/D185E/E176V/E277Q/F133L/F33S/G103R/G107R/G231S/H175R/I121M/I218V/I322F/K168Q/L105A/L300P/L318F/M331R/P208A/P217A/Q94H/R106L/R138Q/S129P/T104I/T323A/T345S/V100E/V321M/V358M); set-up: method as in ref [40], [41], [43] = [40]; 40 Rasmussen M Harndahl M Kristensen A Nielsen I Jorgensen K Stryhn A . Large Scale analysis of peptide - HLA-I stability . ( 2014 ). || [41]; 41 Harndahl M Lamberth K Justesen S Røder G Madsen M Nielsen M . Large Scale analysis of peptide-HLA class I interactions . ( 2007 ). || [43]; 43 Harndahl M Lamberth K Røder G Justesen S Madsen M Nielsen M . Large Scale analysis of peptide-HLA class I interactions . ( 2010 ).; conditions: IEDB; threshold minimum affinity of 500 nM or minimum half-life of 1 h; ref [40], [41], [43]; cited from earlier work
HLA-A*32:15 = HLA-A*32:15 (Homo sapiens, UniProt P04439, A270S/D101S/D185E/E176V/E277Q/E87N/F133L/G103R/G107R/G231S/H175R/I121M/I218V/I322F/K168Q/L105A/L300P/L318F/M331R/P208A/P217A/Q86R/Q94H/R106L/R138Q/S129P/T104I/T323A/T345S/V100E/V321M/V358M); set-up: method as in ref [40], [41], [43] = [40]; 40 Rasmussen M Harndahl M Kristensen A Nielsen I Jorgensen K Stryhn A . Large Scale analysis of peptide - HLA-I stability . ( 2014 ). || [41]; 41 Harndahl M Lamberth K Justesen S Røder G Madsen M Nielsen M . Large Scale analysis of peptide-HLA class I interactions . ( 2007 ). || [43]; 43 Harndahl M Lamberth K Røder G Justesen S Madsen M Nielsen M . Large Scale analysis of peptide-HLA class I interactions . ( 2010 ).; conditions: IEDB; threshold minimum affinity of 500 nM or minimum half-life of 1 h; ref [40], [41], [43]; cited from earlier work
HLA-A*68:23 = HLA-A*68:23 (Homo sapiens, UniProt P04439, A269V/D185E/E176V/E277Q/E87N/F33Y/G231S/I121R/I166T/I218V/L180W/L300P/L318F/N151K/P208A/P217A/Q86R/R169H/T345S); set-up: method as in ref [40], [41], [43] = [40]; 40 Rasmussen M Harndahl M Kristensen A Nielsen I Jorgensen K Stryhn A . Large Scale analysis of peptide - HLA-I stability . ( 2014 ). || [41]; 41 Harndahl M Lamberth K Justesen S Røder G Madsen M Nielsen M . Large Scale analysis of peptide-HLA class I interactions . ( 2007 ). || [43]; 43 Harndahl M Lamberth K Røder G Justesen S Madsen M Nielsen M . Large Scale analysis of peptide-HLA class I interactions . ( 2010 ).; conditions: IEDB; threshold minimum affinity of 500 nM or minimum half-life of 1 h; ref [40], [41], [43]; cited from earlier work
HLA-A*24:02 = HLA-A*24:02 (Homo sapiens, UniProt P04439, D101N/D140Y/D185E/E176V/E190D/F33S/G103R/G107R/I119L/I121M/I306V/K335N/L105A/L180Q/L300P/N151K/N90K/Q86E/Q94H/R106L/R138H/R89G/T104I/T345S/V100E/W191G/Y123F); conditions: below the IEDB thresholds; no reference given; cited from earlier work
HLA-B*58:01 = HLA-B*58:01 (Homo sapiens, UniProt P01889, A329T/C349S/D201E/D98Y/E176V/E187L/E204Q/E69T/G107R/I218V/I90N/K202T/L105A/L119I/N104I/N87E/Q89R/Q94S/R106L/R155S/R180L/R86G/S101N/S121R/S35A/S48A/T118I/V127L/V306I/V36M/Y140S/Y91M); conditions: IEDB; threshold minimum affinity of 500 nM or minimum half-life of 1 h; ref [40], [41], [43]; cited from earlier work

Sequence	Stability T½ (h), peptide - Acar19 (Acar19) [h]	further results
AMSAQAAAF [P1]	–	Stability T½ of Acar3 in complex with the peptide (Acar3): 678 min; Stability T½ (h), peptide - Acar3 (Acar3): 11.3 h; binding to HLA-B*15:01 (HLA-B*15:01): binds
DYQGLPLEF [9-mer peptide]	3.5	Stability T½ of Acar3 in complex with the peptide (Acar3): 12 min; Stability T½ (h), peptide - Acar3 (Acar3): 0.2 h
SYLQAIGIL [9-mer peptide]	0.1	–
SYLGLTQPF [9-mer peptide]	0.2	–
TFMGMNVQF [9-mer peptide]	0.1	–
IANTTDHFF [9-mer peptide]	0.2	–
DSFPNSVTI [9-mer peptide]	1.4	–
MYMALIAAF [9-mer peptide]	0.3	–
NTDEIPELI [9-mer peptide]	0.2	–
YTMELCGAM [9-mer peptide]	0.1	–
VSFSMVGLF [9-mer peptide]	0.1	–
VMKRNFIDF [9-mer peptide]	0.1	–
SFHIIEWLF [9-mer peptide]	0.2	–
HYNAFHWAI [9-mer peptide]	0.3	–
RPAPATGAL [9-mer peptide]	0.3	–
AYAGLFTPL [9-mer peptide]	0.4	–
LRHSTAHLL [9-mer peptide]	0.1	–
SYQALAFDI [9-mer peptide]	0.5	–
DAVRNAAAI [9-mer peptide]	0.3	–
ISDPLTSGL [9-mer peptide]	0.1	–

Sequence	Stability T½ (h), peptide - Acar19 (Acar19) [h]	further results
YRSMIAFKL [9-mer peptide]	0.1	–
DMNLEQWSV [9-mer peptide]	0.4	–
FYPPVLQPI [9-mer peptide]	0.3	–
STAPTGSWF [9-mer peptide]	0.2	–
STYGISEDL [9-mer peptide]	0.1	–
ITFHNQRDF [9-mer peptide]	0.2	–
IQNALEKAL [9-mer peptide]	0.1	–
WYAPVALLF [9-mer peptide]	0.2	–
QRASNVFDL [9-mer peptide]	0.2	–
WFGHLASDW [9-mer peptide]	0.1	–
NHIRIEYII [9-mer peptide]	0.4	–
NTFAAWLPM [9-mer peptide]	0.6	–
NYNGLLSSI [9-mer peptide]	19.1	–
DAMENPLSL [9-mer peptide]	0.2	–
LMNELGVPF [9-mer peptide]	0.6	–
DTFGVIDTM [9-mer peptide]	0.2	–
EAAGIAACL [9-mer peptide]	0.6	–
LFPELDCFF [9-mer peptide]	1.6	–
TRAPAPFPL [9-mer peptide]	0.1	Stability T½ (h), peptide - Acar3 (Acar3): 0.1 h
TTLSIYFLL [9-mer peptide]	0.1	–

Sequence	Stability T½ (h), peptide - Acar19 (Acar19) [h]	further results
DAAVVFPPV [9-mer peptide]	10.0	–
IASPILFPF [9-mer peptide]	0.5	–
DMSTNAEYF [9-mer peptide]	0.2	–
IYYWTAWLI [9-mer peptide]	0.2	–
IAASNLEQF [9-mer peptide]	0.1	–
KASSAWHYF [9-mer peptide]	0.2	–
IALPVAWLF [9-mer peptide]	0.1	–
DVAKIEAPL [9-mer peptide]	11.4	–
GFNKLRSTL [9-mer peptide]	0.4	–
MTMITPPTF [P3]	–	Stability T½ of Acar3 in complex with the peptide (Acar3): 618 min; Stability T½ (h), peptide - Acar3 (Acar3): 10.3 h; binding to HLA-B*35:01 (HLA-B*35:01): binding partners; binding to HLA-A*32:07 (HLA-A*32:07): binding partners; binding to HLA-A*32:15 (HLA-A*32:15): binding partners; binding to HLA-A*68:23 (HLA-A*68:23): binding partners; binding to HLA-A*24:02 (HLA-A*24:02): weak binding; binding to HLA-B*58:01 (HLA-B*58:01): binding partners
ITAALAWSL [9-mer peptide]	0.1	–
YYNAFHWAI [9-mer peptide]	0.4	–
IPKYLEIEI [9-mer peptide]	0.2	–
IFPSMYFLM [9-mer peptide]	0.1	–
IQNATMDEF [9-mer peptide]	0.1	–
IQNEIMKPL [9-mer peptide]	0.2	–
TYSPALNKM [9-mer peptide]	0.1	–
EYARQVQMI [9-mer peptide]	0.4	–
DFNEAIQAY [9-mer peptide]	0.3	–
